Test results published in patent US11548850B2, “Development of a cofilin inhibitor for the treatment of hemorrhagic brain injury-induced neuroinflammation” (The University of Toledo, priority 2019, dated 2023).
Entries after “also recorded” stand apart in the source; their conditions may differ.

How the values were obtained:
[1] = system: HMC3 cells; experiment: Cell viability of LPS-challenged HMC3 cells (CellTiter-Glo Luminescent assay); assay type: cell-based; conditions: LPS 0.1 μg/mL, SZ-3 5-10 μM concurrently
Description: Cultured HMC3 cells were challenged with 0.1 μg/mL of LPS and treated with different concentrations of SZ-3 concurrently. At the end of the experiment cells were harvested for MTT by CellTiter-Glo Luminescent assay (FIG. 9A), Griess assay for NO release (FIG. 9B), and TNF-α by ELISA (FIG. 9C).
After hemorrhage, activated microglia release proinflammatory mediators such as cytokines, chemokines, and nitric oxide (NO) leading to secondary injury which may be worse than the initial insult and may result in severe neurological deficits and death. In order to test whether the synthesized compound will reduce or stop microglial activation and inflammation after hemorrhage, whether the compound poses toxicity to microglia was first assessed. Human microglial cell line (HMC3) was challenged or activated with lipopolysaccharide (LPS) ([…]) and treated with different concentrations of the SZ-3 (10 and 5 μM) concurrently. CellTiter-Glo luminescent assay was used for cell viability; Griess reagent assay was used for NO release and ELISA was used for TNF-α estimations.
All types of cells used in these examples were assayed for viability and proliferation after 24-72 h using the MTT or CellTiter-Glo Luminescent assay Promega (Madison, Wis.). Cells after treatment were incubated with MTT reagent for 3 h in 5% CO2 at 37° C. […] Absorbance was read at 570 nm to quantify cell viability. […]

[2] = system: mice with hemorrhage; experiment: Experimental hemorrhage in mice by collagenase injection into the striatum; assay type: in vivo
Description: Mice were subjected to experimental hemorrhage by injecting collagenase into the striatum. After 3 h of collagenase injection, mice were treated with two concentrations of SZ-3 (1 and 10 mg/kg, i.p.) followed by 12 hourly injections until day 3. Mice were evaluated for baseline rotarod and grip strength 24 h prior and after hemorrhage and then after every 24 hs for three days. N=12 per group. FIG. 12A depicts a timeline of the experiment, and photographs of the mice.
The top column is Sham, the second column is vehicle, the third column is SZ-3 (1 mg/kg), and the fourth column is SZ-3 (10 mg/kg).
Finally, it was desired to elucidate if treatment with SZ-3 can mitigate the hemorrhage induced behavioral deficits. Hemorrhage was induced in mice, and the mice were then treated with SZ-3. Mice were subjected to experimental hemorrhage by injecting collagenase into the mice striatum. Collagenase model simulates the hemorrhage by inducing vessel damage resulting in localized hematomas. This model is widely used in hemorrhagic stroke research.
Mice were treated with two concentrations of SZ-3 (1 and 10 mg/kg, i.p;) immediately after 3 h of hemorrhage and then after every 12 h for 3 days (FIG. 12A). […] Normally, the mice are substantially paralyzed a short time after the stroke.

With `CC(C)(C)c1ccc(O)c(CN(Cc2cc(C(C)(C)C)ccc2O)C2CCC(NC(N)=O)CC2)c1` (stereo not drawn) [SZ-3, 4-{bis[(5-tert-butyl-2-hydroxyphenyl)methyl]amino}cyclohexyl urea] the “toxicity in LPS-challenged HMC3 cells” value [1] was “No cell toxicity was observed”, the “cell death after experimental ICH” value ([2]; FIG. 13, SZ-3 1 mg/kg and 10 mg/kg versus vehicle, fluorescence) was “barely any cell death; also recorded: reduces cell death after experimental ICH” and the “motor function assessed by rotarod” value ([2]; SZ-3 1 and 10 mg/kg i.p. 3 h after hemorrhage then every 12 h for 3 days, day 2 and 3) was “significantly reversed”. For the same compound, the grip strength ([2]; SZ-3 1 and 10 mg/kg i.p., after hemorrhage) was “showed enhanced grip strength”, the “lesions in the mice” value ([2]; mice treated with SZ-3) was “no lesions formed” and the “grip of sham mice” value ([2]; sham mice, no induced hemorrhage) was “improved the grip of the mice even without hemorrhage”.
